The text below walks through data of patent US11883383B2, “Pharmaceutically acceptable salts of [3-(4- {2-butyl-1-[4-(4-chloro-phenoxy)-phenyl]-1H-imidazol-4-yl} -phenoxy)-propyl]-diethyl-amine” (vTv Therapeutics LLC, priority 2018, dated 2024).

Common to all, as to type: physicochemical
The nature of data set [1]: Differential scanning calorimetry (DSC) endotherms of crystalline hits. The conditions noted are these: for DSC Endo. (onset, ° C.): onset temperature. The protocol: (§1) TGA data were collected using a TA Q500 and Q550 from TA Instruments. DSC was performed using a TA Q2000 from TA Instruments. DSC was calibrated with Indium reference standard and the TGA was calibrated using nickel reference standard.
(§2) All hits were further characterized by TGA and DSC, with the stoichiometry determined by ^1H NMR or HPLC/IC. Based on the characterization data in Table 2 below, most of them were considered to be anhydrates.

Data set [2] can be described thus: Thermogravimetric analysis (TGA) weight loss of crystalline hits. The conditions noted are these: for Speculated Form: based on TGA/DSC characterization data. The procedure:
as §1, §2

Data set [3] in a line: Stoichiometry (acid/freebase) by 1H NMR or HPLC/IC.
From the text: Solution NMR was collected on Bruker 500M NMR Spectrometer using DMSO-d6 and CD3OD as solvents.
Agilent 1100 HPLC was utilized to analyze the purity and stoichiometry, with detailed method listed in below.
IC method for counter-ion content measurement is listed below.
as §2

Data set [4] can be described thus: Storage of the solid salt at ambient conditions (physical stability / hygroscopicity). The text has this: One mesylate crystal form was obtained via screening. Mesylate Type A was generated via reactive crystallization (molar ratio of 1:1) in ethyl acetate/hexane (1:2, v/v) at RT.

Read-outs that look alike come from different tables or passages of the source.

As to `CCCCc1nc(-c2ccc(OCCCN(CC)CC)cc2)cn1-c1ccc(Oc2ccc(Cl)cc2)cc1.O=C(O)c1cc(O)ccc1O` [Gentisate Type B], the “DSC Endo. (onset, ° C.)” value in data set [1] worked out at 122.9 °C. In data set [2], the “TGA Wt. Loss (%)” value is given as “negligible” and the “Speculated Form” value is “Anhydrate”. Besides, the “Stoichiometry (acid/base)” value in data set [3] is recorded as 1.03.
On the same counts, the results for `Br.CCCCc1nc(-c2ccc(OCCCN(CC)CC)cc2)cn1-c1ccc(Oc2ccc(Cl)cc2)cc1` [HBr salt Type A] are 169.9 °C, “negligible”, “Anhydrate” and 1.05.
For `CCCCc1nc(-c2ccc(OCCCN(CC)CC)cc2)cn1-c1ccc(Oc2ccc(Cl)cc2)cc1.Cl` [HCl salt Type A], the “DSC Endo. (onset, ° C.)” value in data set [1] turned out to be 167.0 °C. Moreover, in data set [2], the “TGA Wt. Loss (%)” value was “negligible” and the “Speculated Form” value is listed as “Anhydrate”. Also, the “Stoichiometry (acid/base)” value in data set [3] amounted to 1.33.
With `CCCCc1nc(-c2ccc(OCCCN(CC)CC)cc2)cn1-c1ccc(Oc2ccc(Cl)cc2)cc1.O=C(O)CNC(=O)c1ccccc1` [Hippurate Type A], the “DSC Endo. (onset, ° C.)” value in data set [1] stood at 72.7 °C. For the same compound, in data set [1] (peak temperature (footnote *)), the “DSC Endo., peak temperature” value was determined as 44.3 °C. Also, in data set [2], the “TGA Wt. Loss (%)” value was “negligible” and the “Speculated Form” value is “Anhydrate”. The “Stoichiometry (acid/base)” value in data set [3] is 0.98.
`CCCCc1nc(-c2ccc(OCCCN(CC)CC)cc2)cn1-c1ccc(Oc2ccc(Cl)cc2)cc1.O=C(O)C[C@H](O)C(=O)O` [L-Malate Type A]: the “DSC Endo. (onset, ° C.)” value in data set [1] was found to be 67.8 °C. In data set [2], the “TGA Wt. Loss (%)” value is reported as “negligible” and the “Speculated Form” value was “Anhydrate”. In addition, the “Stoichiometry (acid/base)” value in data set [3] was 1.11.
As to `CCCCc1nc(-c2ccc(OCCCN(CC)CC)cc2)cn1-c1ccc(Oc2ccc(Cl)cc2)cc1.O=C(O)C(O)C(O)C(=O)O` [L-Tartrate Type A], the “DSC Endo. (onset, ° C.)” value in data set [1] came to 76.4 °C. Also, the “Speculated Form” value in data set [2] was “Hydrate”. Besides, the “TGA Wt. Loss (%)” value in data set [2] (up to 60° C.) is recorded as 2.1 up to %. The “Stoichiometry (acid/base)” value in data set [3] worked out at 1.00.
With `CCCCc1nc(-c2ccc(OCCCN(CC)CC)cc2)cn1-c1ccc(Oc2ccc(Cl)cc2)cc1.O=C(O)/C=C\C(=O)O` [Maleate Type A], the “DSC Endo. (onset, ° C.)” value in data set [1] stood at 120.2 °C. Moreover, in data set [2], the “TGA Wt. Loss (%)” value is given as “negligible” and the “Speculated Form” value is given as “Anhydrate”. In addition, the “Stoichiometry (acid/base)” value in data set [3] was 0.97.
Take `CCCCc1nc(-c2ccc(OCCCN(CC)CC)cc2)cn1-c1ccc(Oc2ccc(Cl)cc2)cc1.CS(=O)(=O)O` [Mesylate Type A]: in data set [4] (ambient conditions), the “Storage at ambient conditions” value is listed as “+”. The “Hygroscopicity / stability under ambient conditions, as suggested by the gel conversion” value in data set [4] (ambient conditions, inferred from conversion to gel) was “highly hygroscopic and unstable”. Also, the “Physical stability of the sample after storage at ambient conditions” value in data set [4] (solid, storage at ambient conditions) was “converted to gel”.
Regarding `CCCCc1nc(-c2ccc(OCCCN(CC)CC)cc2)cn1-c1ccc(Oc2ccc(Cl)cc2)cc1.O=C(O)C(=O)O` [Oxalate Type A], the “DSC Endo. (onset, ° C.)” value in data set [1] turned out to be 109.5 °C. Further, in data set [2], the “TGA Wt. Loss (%)” value is “negligible” and the “Speculated Form” value is listed as “Anhydrate”. Further, the “Stoichiometry (acid/base)” value in data set [3] was determined as 1.12.
With `CCCCc1nc(-c2ccc(OCCCN(CC)CC)cc2)cn1-c1ccc(Oc2ccc(Cl)cc2)cc1.O=C1NS(=O)(=O)c2ccccc21` [Saccharinate Type A], in data set [1], the “DSC Endo. (onset, ° C.)” value was 120.0 °C. For the same compound, in data set [2], the “TGA Wt. Loss (%)” value was “negligible” and the “Speculated Form” value is reported as “Anhydrate”. The “Stoichiometry (acid/base)” value in data set [3] is listed as 1.22.
With `CCCCc1nc(-c2ccc(OCCCN(CC)CC)cc2)cn1-c1ccc(Oc2ccc(Cl)cc2)cc1.COc1cc(C(=O)O)ccc1O` [Vanillate Type A], the “DSC Endo. (onset, ° C.)” value in data set [1] came to 99.6 °C. In addition, in data set [2], the “TGA Wt. Loss (%)” value was “negligible” and the “Speculated Form” value was “Anhydrate”. The “Stoichiometry (acid/base)” value in data set [3] came out at 1.04.
